Four sequences from patent publication US20070128217A1 (priority 2003, published 2007) can be followed below.

The subject of test [1] is rabbit serum obtained by immunizing a rabbit with the SARS-CoV strain Frankfurt 1. The test is classed as binding. Set-up: Binding of a rabbit serum to linear peptides / Binding of a rabbit serum to looped peptides / Rabbit serum linear peptides / Rabbit serum looped peptides / Binding of a rabbit serum to linear peptides of protein N of SARS-CoV Urbani (Rabbit serum linear peptides) / Binding of a rabbit serum to looped/cyclic peptides of protein N of SARS-CoV Urbani (Rabbit serum looped peptides): unit not given here.

Test [2] deals with antibodies in sera from SARS patients (sera 1a, 1b, 2, 6, 37, 62, London, SARS-yellow, SARS-green). It is filed as binding, human. Set-up: Binding of serum 6 to linear peptides of protein X1 of SARS-CoV Urbani / Binding of serum 37 to linear peptides of protein X1 of SARS-CoV Urbani / Binding of serum 6 to looped/cyclic peptide (PEPSCAN-ELISA) / Binding of serum 37 to looped/cyclic peptide (PEPSCAN-ELISA) / Binding of serum 37 to looped/cyclic peptides of protein X1 of SARS-CoV Urbani / Binding of serum 6 to linear peptides of protein X2 / Binding of serum 37 to linear peptides of protein X2 / Binding of serum 37 to looped/cyclic peptides of protein X2 of SARS-CoV Urbani / Binding of serum 6 to linear peptides of protein M of SARS-CoV Urbani / Binding of serum 37 to linear peptides of protein M of SARS-CoV Urbani / Binding of serum 6 to looped/cyclic peptides of protein M of SARS-CoV Urbani / Binding of serum 37 to looped/cyclic peptides of protein M of SARS-CoV Urbani / Binding of serum 6 to linear peptides of protein X3 of SARS-CoV Urbani / Binding of serum 37 to linear peptides of protein X3 of SARS-CoV Urbani / Binding of serum 37 to looped/cyclic peptides of protein X3 of SARS-CoV Urbani / Binding of serum 6 to linear peptides of protein X4 of SARS-CoV Urbani / Binding of serum 37 to linear peptides of protein X4 of SARS-CoV Urbani / Binding of serum 37 to looped/cyclic peptides of protein X4 of SARS-CoV Urbani / Binding of serum 6 to linear peptides of protein X5 of SARS-CoV Urbani / Binding of serum 37 to linear peptides of protein X5 of SARS-CoV Urbani / Binding of serum 37 to looped/cyclic peptides of protein X5 of SARS-CoV Urbani / Binding of serum 6 to linear peptides of protein N of SARS-CoV Urbani / Binding of serum 37 to linear peptides of protein N of SARS-CoV Urbani / Binding of serum 6 to linear peptide (PEPSCAN-ELISA) / Binding of serum 1a to looped/cyclic peptides of protein N of SARS-CoV Urbani / Binding of serum 1b to looped/cyclic peptides of protein N of SARS-CoV Urbani / Binding of serum 2 to looped/cyclic peptides of protein N of SARS-CoV Urbani / Binding of serum 6 to looped/cyclic peptides of protein N of SARS-CoV Urbani / Binding of serum 37 to looped/cyclic peptides of protein N of SARS-CoV Urbani / Binding of serum 62 to looped/cyclic peptides of protein N of SARS-CoV Urbani / Binding of serum London to looped/cyclic peptides of protein N of SARS-CoV Urbani / Binding of serum SARS-green to looped/cyclic peptides of protein N of SARS-CoV Urbani: unit not given here.

The subject of test [3] is control sera (pooled serum of ten healthy LUMC hospital workers; commercial negative donor pooled serum from the Dutch bloodbank). The test is classed as binding, human. Set-up: Binding of Control serum LUMC to linear peptides / Binding of Control serum Blood-bank to linear peptides / Binding of Control serum LUMC to looped peptides / Binding of Control Serum Blood-Bank to Looped peptides / Binding of Control serum LUMC to linear peptides of the protein M of SARS-CoV Urbani / Binding of Control serum Blood-bank to linear peptides of the protein M of SARS-CoV Urbani / Binding of Control serum LUMC to looped peptides of the protein M of SARS-CoV Urbani / Binding of Control Serum Blood-Bank to Looped peptides of the protein M of SARS-CoV Urbani: unit not given here.

With LYKGFQFICNLLLLF, in test [1], the “Binding of a rabbit serum to linear peptides” value came to 0.2 and the “Binding of a rabbit serum to looped peptides” value was 0.3. In test [2], the “Binding of serum 1a to linear peptides of protein X1 of SARS-CoV Urbani” value is on record as 0.6, the “Binding of serum 1a to looped/cyclic peptide (PEPSCAN-ELISA)” value was 0.5, the “Binding of serum 1b to linear peptides of protein X1 of SARS-CoV Urbani” value was found to be 0.5 and the “Binding of serum 1b to looped/cyclic peptide (PEPSCAN-ELISA)” value came out at 0.3. In test [2], the “Binding of serum 2 to linear peptides of protein X1 of SARS-CoV Urbani” value was determined as 0.5, the “Binding of serum 2 to looped/cyclic peptide (PEPSCAN-ELISA)” value came to 0.3, the “Binding of serum 6 to linear peptides of protein X1 of SARS-CoV Urbani” value worked out at 0.4 and the “Binding of serum 6 to looped/cyclic peptide (PEPSCAN-ELISA)” value turned out to be 1.5. In addition, in test [2], the “Binding of serum 37 to linear peptides of protein X1 of SARS-CoV Urbani” value was 0.5, the “Binding of serum 37 to looped/cyclic peptide (PEPSCAN-ELISA)” value amounted to 0.4, the “Binding of serum 62 to linear peptides of protein X1 of SARS-CoV Urbani” value turned out to be 0.4 and the “Binding of serum 62 to looped/cyclic peptide (PEPSCAN-ELISA)” value came to 0.5. Moreover, in test [2], the “Binding of serum London to linear peptides of protein X1 of SARS-CoV Urbani” value came out at 0.2, the “Binding of serum London to looped/cyclic peptide (PEPSCAN-ELISA)” value came to 1.7, the “Binding of serum SARS-green to linear peptides of protein X1 of SARS-CoV Urbani” value is recorded as 0.2 and the “Binding of serum SARS-green to looped/cyclic peptide (PEPSCAN-ELISA)” value is reported as 0.2. Further, in test [2], the “Binding of serum SARS-yellow to linear peptides of protein X1 of SARS-CoV Urbani” value was found to be 0.4 and the “Binding of serum SARS-yellow to looped/cyclic peptide (PEPSCAN-ELISA)” value worked out at 0.3. Moreover, in test [3], the “Binding of Control Serum Blood-Bank to Looped peptides” value is given as 0.4, the “Binding of Control serum Blood-bank to linear peptides” value stood at 0.5, the “Binding of Control serum LUMC to linear peptides” value came to 0.5 and the “Binding of Control serum LUMC to looped peptides” value amounted to 0.6.

LYLYALIYFLQCINA: in test [1], the “Binding of a rabbit serum to linear peptides” value was 0.1 and the “Binding of a rabbit serum to looped peptides” value is listed as 0.5. Further, in test [2], the “Binding of serum 1a to linear peptides of protein X1 of SARS-CoV Urbani” value is on record as 0.7, the “Binding of serum 1a to looped/cyclic peptide (PEPSCAN-ELISA)” value stood at 0.3, the “Binding of serum 1b to linear peptides of protein X1 of SARS-CoV Urbani” value was 0.5 and the “Binding of serum 1b to looped/cyclic peptide (PEPSCAN-ELISA)” value is 0.3. In test [2], the “Binding of serum 2 to linear peptides of protein X1 of SARS-CoV Urbani” value came out at 0.4, the “Binding of serum 2 to looped/cyclic peptide (PEPSCAN-ELISA)” value is on record as 0.2, the “Binding of serum 6 to linear peptides of protein X1 of SARS-CoV Urbani” value was 0.3 and the “Binding of serum 6 to looped/cyclic peptide (PEPSCAN-ELISA)” value is listed as 0.3. In test [2], the “Binding of serum 37 to linear peptides of protein X1 of SARS-CoV Urbani” value stood at 0.5, the “Binding of serum 37 to looped/cyclic peptide (PEPSCAN-ELISA)” value came out at 0.4, the “Binding of serum 62 to linear peptides of protein X1 of SARS-CoV Urbani” value amounted to 0.5 and the “Binding of serum 62 to looped/cyclic peptide (PEPSCAN-ELISA)” value was found to be 0.4. For the same sequence, in test [2], the “Binding of serum London to linear peptides of protein X1 of SARS-CoV Urbani” value is recorded as 0.2, the “Binding of serum London to looped/cyclic peptide (PEPSCAN-ELISA)” value is reported as 0.2, the “Binding of serum SARS-green to linear peptides of protein X1 of SARS-CoV Urbani” value worked out at 0.2 and the “Binding of serum SARS-green to looped/cyclic peptide (PEPSCAN-ELISA)” value is given as 0.2. Besides, in test [2], the “Binding of serum SARS-yellow to linear peptides of protein X1 of SARS-CoV Urbani” value came to 0.5 and the “Binding of serum SARS-yellow to looped/cyclic peptide (PEPSCAN-ELISA)” value came to 0.3. Further, in test [3], the “Binding of Control Serum Blood-Bank to Looped peptides” value is listed as 0.5, the “Binding of Control serum Blood-bank to linear peptides” value is on record as 0.5, the “Binding of Control serum LUMC to linear peptides” value is listed as 0.5 and the “Binding of Control serum LUMC to looped peptides” value amounted to 0.4.

In the case of LYMAISPKFTTSLSL, in test [1], the “Binding of a rabbit serum to linear peptides” value turned out to be 0.3 and the “Binding of a rabbit serum to looped peptides” value is reported as 0.5. In addition, in test [2], the “Binding of serum 1a to linear peptides of protein X2” value is listed as 0.7, the “Binding of serum 1a to looped/cyclic peptides of protein X2 of SARS-CoV Urbani” value was found to be 0.6, the “Binding of serum 1b to linear peptides of protein X2” value was found to be 0.5 and the “Binding of serum 1b to looped/cyclic peptides of protein X2 of SARS-CoV Urbani” value worked out at 0.5. Besides, in test [2], the “Binding of serum 2 to linear peptides of protein X2” value amounted to 0.5, the “Binding of serum 2 to looped/cyclic peptides of protein X2 of SARS-CoV Urbani” value turned out to be 0.5, the “Binding of serum 6 to linear peptides of protein X2” value was 0.3 and the “Binding of serum 6 to looped/cyclic peptides of protein X2 of SARS-CoV Urbani” value turned out to be 0.5. In test [2], the “Binding of serum 37 to linear peptides of protein X2” value is on record as 0.6, the “Binding of serum 37 to looped/cyclic peptides of protein X2 of SARS-CoV Urbani” value amounted to 0.5, the “Binding of serum 62 to linear peptides of protein X2” value came to 0.6 and the “Binding of serum 62 to looped/cyclic peptides of protein X2 of SARS-CoV Urbani” value is recorded as 0.7. In test [2], the “Binding of serum London to linear peptides of protein X2” value stood at 0.3, the “Binding of serum London to looped/cyclic peptides of protein X2 of SARS-CoV Urbani” value amounted to 0.6, the “Binding of serum SARS-green to linear peptides of protein X2” value stood at 0.5 and the “Binding of serum SARS-green to looped/cyclic peptides of protein X2 of SARS-CoV Urbani” value is 0.4. In test [2], the “Binding of serum SARS-yellow to linear peptides of protein X2” value turned out to be 0.6 and the “Binding of serum SARS-yellow to looped/cyclic peptides of protein X2 of SARS-CoV Urbani” value was 0.5. In addition, in test [3], the “Binding of Control Serum Blood-Bank to Looped peptides” value stood at 0.7, the “Binding of Control serum Blood-bank to linear peptides” value amounted to 0.6, the “Binding of Control serum LUMC to linear peptides” value is 0.3 and the “Binding of Control serum LUMC to looped peptides” value was 0.8.

MCKYTQSTALQELLI: in test [1], the “Binding of a rabbit serum to linear peptides” value came to 0.2 and the “Binding of a rabbit serum to looped peptides” value was found to be 0.4. Besides, in test [2], the “Binding of serum 1a to linear peptides of protein X2” value came to 0.8, the “Binding of serum 1a to looped/cyclic peptides of protein X2 of SARS-CoV Urbani” value is 0.6, the “Binding of serum 1b to linear peptides of protein X2” value came out at 0.7 and the “Binding of serum 1b to looped/cyclic peptides of protein X2 of SARS-CoV Urbani” value was 0.6. Further, in test [2], the “Binding of serum 2 to linear peptides of protein X2” value stood at 0.6, the “Binding of serum 2 to looped/cyclic peptides of protein X2 of SARS-CoV Urbani” value is 0.5, the “Binding of serum 6 to linear peptides of protein X2” value was found to be 0.5 and the “Binding of serum 6 to looped/cyclic peptides of protein X2 of SARS-CoV Urbani” value is on record as 0.3. Further, in test [2], the “Binding of serum 37 to linear peptides of protein X2” value was determined as 0.6, the “Binding of serum 37 to looped/cyclic peptides of protein X2 of SARS-CoV Urbani” value was found to be 0.7, the “Binding of serum 62 to linear peptides of protein X2” value turned out to be 0.8 and the “Binding of serum 62 to looped/cyclic peptides of protein X2 of SARS-CoV Urbani” value came out at 0.8. In test [2], the “Binding of serum London to linear peptides of protein X2” value is reported as 0.5, the “Binding of serum London to looped/cyclic peptides of protein X2 of SARS-CoV Urbani” value was determined as 0.2, the “Binding of serum SARS-green to linear peptides of protein X2” value is 0.8 and the “Binding of serum SARS-green to looped/cyclic peptides of protein X2 of SARS-CoV Urbani” value worked out at 0.7. Also, in test [2], the “Binding of serum SARS-yellow to linear peptides of protein X2” value is 0.7 and the “Binding of serum SARS-yellow to looped/cyclic peptides of protein X2 of SARS-CoV Urbani” value came out at 0.4. Also, in test [3], the “Binding of Control Serum Blood-Bank to Looped peptides” value is listed as 0.8, the “Binding of Control serum Blood-bank to linear peptides” value was determined as 0.9, the “Binding of Control serum LUMC to linear peptides” value is reported as 0.7 and the “Binding of Control serum LUMC to looped peptides” value stood at 0.7.
